Measurements reported in paper PMC3004370, “PI3Kα Inhibitors That Inhibit Metastasis” (Oncotarget, 2010).

Key:
[1] = biological target: T1, p110β (Homo sapiens, UniProt P42338); assay: Biochemical PI3K inhibition assay, p110β
T1 construct: His-tag; made in house; host or cells: Sf9 insect cells (baculovirus)
Source text: cDNA clones of PIK3CA, PIK3CB and PIK3CG were obtained from Origene (Rockville, MD, USA). PIK3CD was generously provided by Novartis Pharmaceuticals. The cDNA clones were sub-cloned into pFastBac His-Tag (Invitrogen, Carlsbad, CA, USA) and baculovirus clones were generated by the Bac-to-Bac expression system (Invitrogen). p110α, p110β and p110δ were co-expressed in Sf9 insect cells (Invitrogen) with a nSH2-iSH2 fragment of the regulatory subunit p85 comprising AA residues 322 to 600 [4]. p110γ was expressed without a regulatory subunit. Sf9 cells were lysed in a buffer containing 50 mM sodium phosphate, pH 8.0, 400 mM NaCl, 5% glycerol, 1% Triton X-100, 10 mM 2-mercaptoethanol, 1 mM orthovanadate, 10 mM imidazole, and sonicated on ice for 1 minute. Proteins were purified by adding Ni-NTA Superflow beads (Qiagen, Valencia, CA, USA) to the lysate and subsequent rolling for 30 min at 4°C. Beads were washed twice with 50 mM phosphate buffer, pH 8.0, 0.5 M NaCl, 50 mM Imidazole, 2 mM DTT and eluted in the same buffer but with 200 mM imidazole. Purified PI3K's were mixed 1:1 with glycerol and stored at -20°C.
(§1) J-series inhibitors were dissolved, serial diluted in DMSO and deposited into 96 well plates at a final DMSO concentration of 1%. We used a novel assay to determine their potency and selectivity. In brief, micelles of 2.5 μg L-a-Phosphatidylinositol and 2.5 μg 1,2-Diacyl-sn-glycero-3-phospho-L-serine were formed by sonication, mixed with the individual PI3K isoforms and added to the drug dilutions in a reaction buffer containing 10 mM HEPES, 25 mM NaCl, 0.125 μg/μl BSA, and 2 mM BME (final concentrations). Reactions were timed after the addition of 10 μM ATP with 40 μCi/ml γ-32P-ATP (PerkinElmer, Waltham, MA, USA) and 2 mM MgCl2 (all final concentrations). The reactions were terminated after two hours by the addition of 2 N HCl and the lipids extracted with 1:1 MetOH/Chloroform. Radio-labeled phosphatidyl-inositol-3-phosphate in the extracted organic fraction was quantified after the addition of Microscint O (PerkinElmer) using a TopCount 96 well plate scintillation counter (PerkinElmer). IC50 concentrations and inhibition curves were calculated using Prism 5 (GraphPad Software, La Jolla, CA).

[2] = biological target: T2, p110α (Homo sapiens, UniProt P42336); assay: Biochemical PI3K inhibition assay, p110α
T2 construct: His-tag; made in house; host or cells: Sf9 insect cells (baculovirus)
T2 sequence (P42336 whole entry): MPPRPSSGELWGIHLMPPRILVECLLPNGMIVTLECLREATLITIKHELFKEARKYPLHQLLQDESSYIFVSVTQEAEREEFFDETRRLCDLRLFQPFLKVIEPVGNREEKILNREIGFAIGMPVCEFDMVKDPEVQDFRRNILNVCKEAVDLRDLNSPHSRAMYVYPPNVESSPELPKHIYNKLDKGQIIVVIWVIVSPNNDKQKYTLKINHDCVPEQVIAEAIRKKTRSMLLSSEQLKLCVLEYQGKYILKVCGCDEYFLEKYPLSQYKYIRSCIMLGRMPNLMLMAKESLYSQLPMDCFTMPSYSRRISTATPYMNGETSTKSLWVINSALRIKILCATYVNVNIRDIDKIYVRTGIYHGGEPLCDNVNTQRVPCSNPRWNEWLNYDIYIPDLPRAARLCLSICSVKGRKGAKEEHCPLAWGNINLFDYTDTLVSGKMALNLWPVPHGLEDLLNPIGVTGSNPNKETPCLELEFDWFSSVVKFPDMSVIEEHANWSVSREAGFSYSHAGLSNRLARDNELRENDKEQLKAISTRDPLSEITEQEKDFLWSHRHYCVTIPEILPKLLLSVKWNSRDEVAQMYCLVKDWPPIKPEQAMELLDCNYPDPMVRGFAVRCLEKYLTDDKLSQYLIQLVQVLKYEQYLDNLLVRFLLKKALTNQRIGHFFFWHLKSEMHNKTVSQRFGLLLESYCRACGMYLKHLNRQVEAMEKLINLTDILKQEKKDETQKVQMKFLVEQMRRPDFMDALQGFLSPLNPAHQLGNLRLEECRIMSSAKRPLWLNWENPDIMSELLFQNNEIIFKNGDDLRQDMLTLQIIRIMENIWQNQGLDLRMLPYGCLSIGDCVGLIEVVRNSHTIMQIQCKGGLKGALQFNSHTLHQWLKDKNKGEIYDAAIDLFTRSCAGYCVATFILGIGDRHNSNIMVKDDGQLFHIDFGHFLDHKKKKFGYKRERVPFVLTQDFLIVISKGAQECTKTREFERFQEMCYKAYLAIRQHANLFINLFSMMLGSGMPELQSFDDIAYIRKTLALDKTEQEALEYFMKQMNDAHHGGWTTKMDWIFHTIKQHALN
T2 sequence (P27986 322-600 partner limits assumed): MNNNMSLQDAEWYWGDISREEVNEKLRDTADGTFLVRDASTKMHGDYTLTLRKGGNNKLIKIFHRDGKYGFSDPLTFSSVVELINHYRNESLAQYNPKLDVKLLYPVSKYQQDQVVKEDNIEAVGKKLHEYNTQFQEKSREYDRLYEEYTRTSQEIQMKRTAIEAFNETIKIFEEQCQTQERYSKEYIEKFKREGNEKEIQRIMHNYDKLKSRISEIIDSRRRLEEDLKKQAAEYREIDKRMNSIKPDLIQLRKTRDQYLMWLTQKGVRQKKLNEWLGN
Procedure: PIK3CD was generously provided by Novartis Pharmaceuticals. […] Sf9 cells were lysed in a buffer containing 50 mM sodium phosphate, pH 8.0, 400 mM NaCl, 5% glycerol, 1% Triton X-100, 10 mM 2-mercaptoethanol, 1 mM orthovanadate, 10 mM imidazole, and sonicated on ice for 1 minute. Proteins were purified by adding Ni-NTA Superflow beads (Qiagen, Valencia, CA, USA) to the lysate and subsequent rolling for 30 min at 4°C. Beads were washed twice with 50 mM phosphate buffer, pH 8.0, 0.5 M NaCl, 50 mM Imidazole, 2 mM DTT and eluted in the same buffer but with 200 mM imidazole. Purified PI3K's were mixed 1:1 with glycerol and stored at -20°C.
as §1, with “In brief, micelles of 2.5 μg L-a-Phosphatidylinositol and 2.5 μg 1,2-Diacyl-sn-glycero-3-phospho-L-serine were formed by sonication, mixed with the individual PI3K isoforms and added to the drug dilutions in a reaction buffer containing 10 mM HEPES, 25 mM NaCl, 0.125 μg/μl BSA, and 2 mM BME (final concentrations).” left out

[3] = test system: Intraspleenic-injected HCT116 liver and lung metastases; assay: Intraspleenic tumor model (metastasis); type: in vivo, mice; details: 150 mg/kg IP daily, three weeks
Procedure: Intraspleenic-injected HCT116 liver and lung metastases in NOD.Cg-Prkdcscid Il2rgtm1Wjl/SzJ mice (Jackson Laboratory, Bar Harbor, ME, USA) were generated as described in Erikson et. al.. J-series compounds were solubilized in 1:1 DMSO/Cremophor EL (Sigma-Aldrich) and diluted 2.3-fold in water to a final concentration of 7.5 mg/ml. 400 μl of this formulation (150 mg/kg) was injected intraperitoneally (IP) once a day for three weeks, beginning the third day post-surgery. Mice were sacrificed after the treatment and the liver, lungs, and spleen sampled. DNA was extracted from organs with the DNeasy Blood & Tissue Kit (Qiagen). The qPCR assay used for quantification of human DNA in mouse organs has been described. All mouse protocols were designed in accordance with the NIH Guide for the Care and Use of Laboratory Animals and approved by the Institutional Animal Care and Use Committee.

T1 sequence (P42338 whole entry): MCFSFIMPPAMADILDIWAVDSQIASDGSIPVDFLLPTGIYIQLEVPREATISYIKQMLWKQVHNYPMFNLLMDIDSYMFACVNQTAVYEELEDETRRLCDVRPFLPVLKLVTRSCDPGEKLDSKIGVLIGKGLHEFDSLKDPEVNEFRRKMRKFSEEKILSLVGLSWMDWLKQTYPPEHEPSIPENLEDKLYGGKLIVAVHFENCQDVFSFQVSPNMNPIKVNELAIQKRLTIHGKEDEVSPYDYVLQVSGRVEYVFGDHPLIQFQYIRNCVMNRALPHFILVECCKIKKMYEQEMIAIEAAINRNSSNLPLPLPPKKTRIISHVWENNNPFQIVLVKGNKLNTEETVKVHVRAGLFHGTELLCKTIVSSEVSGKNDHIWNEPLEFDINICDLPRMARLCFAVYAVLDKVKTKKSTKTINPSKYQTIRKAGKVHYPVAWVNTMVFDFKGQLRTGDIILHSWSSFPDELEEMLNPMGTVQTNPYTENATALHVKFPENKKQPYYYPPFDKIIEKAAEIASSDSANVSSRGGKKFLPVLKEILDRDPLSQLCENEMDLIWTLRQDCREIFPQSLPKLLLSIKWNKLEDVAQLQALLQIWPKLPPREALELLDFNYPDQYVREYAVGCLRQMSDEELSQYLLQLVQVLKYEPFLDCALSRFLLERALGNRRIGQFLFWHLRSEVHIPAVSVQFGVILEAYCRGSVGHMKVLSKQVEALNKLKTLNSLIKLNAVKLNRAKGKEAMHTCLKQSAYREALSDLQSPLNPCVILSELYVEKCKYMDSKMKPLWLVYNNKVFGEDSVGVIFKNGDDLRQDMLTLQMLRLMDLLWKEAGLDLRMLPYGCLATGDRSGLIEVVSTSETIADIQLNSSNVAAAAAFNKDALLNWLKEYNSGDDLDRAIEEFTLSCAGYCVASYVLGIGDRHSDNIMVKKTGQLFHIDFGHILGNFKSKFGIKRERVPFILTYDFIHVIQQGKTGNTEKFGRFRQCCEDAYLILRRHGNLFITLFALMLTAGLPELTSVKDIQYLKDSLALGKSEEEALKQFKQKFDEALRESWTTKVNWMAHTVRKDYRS
T1 sequence (P27986 322-600 partner limits assumed): as the sequence (P27986 322-600 partner limits assumed) above

Compound: CCN(/N=C/c1cnc2ccc(Br)cn12)S(=O)(=O)c1cc([N+](=O)[O-])c(NC(=O)C(F)(F)F)cc1C [J124]
- IC50 ([1]; 10 μM ATP, two hours): 270 nM
- selectivity against PI3Kβ ([1]; relative to PI3Kα): > 20 fold
- IC50 ([2]; 10 μM ATP, two hours): 11 nM
- increase of inhibitory activity for PI3Kα ([2]; compared to J32): 1.4 fold
- metastatic lesions in the lungs [3]: no lesions
- metastatic foci in the liver (histopathology) ([3]; compared to vehicle): few, if any, metastatic foci
- reduction in primary tumor burden in the spleen (real-time PCR) ([3]; compared to vehicle): ~ 50%
- reduction of metastatic liver burden (real-time PCR) ([3]; compared to vehicle): 13 fold
